From patent US20080289052A1, “Method of Constructing Animal Having Cancer Cells Transplanted Thereinto” (priority 2004, published 2008)

Tested on: cancer cells A-549
Test: Anti-tumor agent test in nude mice transplanted subcutaneously with an A-549 cancer cells sheet
Assay type: in vivo
Method: A cell culture base was coated with the temperature-responsive polymer poly(N-isopropylacrylamide) in an amount of 1.9 μg/cm^2 and the cancer cells A-549 was cultivated (2×10^4 cells were seeded; 37° C. in 5% CO2). Three days later, the cancer cells (A-549) on the culture base were confirmed to have become confluent; thereafter, a poly(vinylidene difluoride) [PVDF] membrane not coated with a fibrin gel was gently placed over the cultured cell sheet so that the cultured cancer cells adhered to it; then, the cell culture base was cooled at 20° C. for 60 minutes. After the cooling, a sheet of cancer cells (7 mm×17 mm×2 mm; 5×10^5 cells) was detached together with PVDF membrane. The back of each of 10 nude mice was incised linearly beneath the skin and the subcutaneous tissue was detached with forceps to create a pocket, into which the above-described cancer cells sheet was inserted. After the inserting, the incised part was sutured to complete the transplantation. The dimensions of the tumor that developed after the transplantation were measured over the skin with a micrometer and the volume of the tumor was calculated assuming that it was an ellipsoid. The volume of the tumor was also calculated, this time on the assumption that it was a cylindroid (volume of cylindroid=n/4×major axis of the tumor×minor axis of the tumor×thickness of the tumor). Four weeks after the transplantation, the mean volume of ellipsoid was 578.7+322.8 mm^3, the mean volume of cylindroid was 1258.7+897.9 mm^3, and the mean tumor weight was 785.4±394 mg. The decrease in the tumor volume that occurred immediately after the transplantation as shown in FIG. 1 (tumor assumed as an ellipsoid) and FIG. 2 (as a cylindroid) was absent and the tumor grew bigger as more days elapsed after the transplantation.
The cancer cells transplanted animals prepared in Example 2 were administered a total of four times on a once-a-week basis with 3 mg of 5-fluorouracil (5-FU), a known anti-tumor agent, through the tail vein as it was dissolved in 0.3 ml of 1% ethyl alcohol containing physiological saline. Four weeks after the administration, the mean volume of ellipsoid was 279.6±127.1 mm^3, the mean volume of cylindroid was 619.3±262.9 mm^3, and the mean tumor weight was 369.3±123 mg. As it turned out, the cancer cells transplanted animals described in the present invention got the volume and weight of the tumor to be reduced by receiving the anti-tumor agent. Obviously, the cancer cells transplanted animals of the present invention are useful in selecting an effective anti-tumor agent.

[1] = A-549 cell sheet transplanted nude mice of Example 2, 3 mg through the tail vein once a week, four times, four weeks after the administration

O=c1[nH]cc(F)c(=O)[nH]1 [5-fluorouracil]
mean tumor weight [1]: 369.3 ± 123 mg
mean volume of cylindroid (tumor volume) [1]: 619.3±262.9 mm^3
mean volume of ellipsoid (tumor volume) [1]: 279.6±127.1 mm^3
volume and weight of the tumor (effect of receiving the anti-tumor agent) (A-549 cell sheet transplanted nude mice, compared with untreated animals of Example 2): reduced
